Test results from patent publication US12195741B2, “Creation of herbicide resistant gene and use thereof” (INSTITUTE OF GENETICS AND DEVELOPMENTAL BIOLOGY, CHINESE …, priority 2017, dated 2025).

Assays:
[1] = test system: wild type wheat tissue culture seedlings; assay: Establishing resistance screening conditions: herbicide concentration inhibiting growth of wild type wheat seedlings; format: in vivo; conditions: minimum herbicide concentration inhibiting plant growth, 1/2 MS medium, after 7 days
Method: (§1) Herbicides listed in Table 5 were selected, and ½ MS medium containing different concentrations of herbicides was prepared for screening wild type rice and wheat tissue culture seedlings. After 7 days, the minimum herbicide concentrations inhibiting plant growth were selected for subsequent screen of transformed plants.

[2] = test system: wild type rice tissue culture seedlings; assay: Establishing resistance screening conditions: herbicide concentration inhibiting growth of wild type rice seedlings; format: in vivo; conditions: minimum herbicide concentration inhibiting plant growth, 1/2 MS medium, after 7 days
Method: as §1

In the case of `COC(=O)[C@@H](C)Oc1ccc(Oc2ncc(C(F)(F)F)cc2Cl)cc1` [Haloxyfop-R-methyl], the “Selection concentration for wheat (PPM)” value [1] is reported as 0.036 PPM and the “Selection concentration for rice (PPM)” value [2] is reported as 0.036 PPM.
With `COc1cc(OC)nc(NC(=O)NS(=O)(=O)c2ncccc2C(=O)N(C)C)n1` [Nicosulfuron] the “Selection concentration for wheat (PPM)” value [1] was 0.13 PPM and the “Selection concentration for rice (PPM)” value [2] was 0.012 PPM.
In the case of `CCCCOC(=O)[C@@H](C)Oc1ccc(Oc2ccc(C#N)cc2F)cc1` [cyhalofop-butyl], the “Selection concentration for rice (PPM)” value [2] is reported as 5.3 PPM.
For `CCOC(=O)[C@@H](C)Oc1ccc(Oc2nc3ccc(Cl)cc3o2)cc1` [fenoxaprop-P-ethyl], the “Selection concentration for rice (PPM)” value [2] was 4.5 PPM.
For `CCC/C(=N\OCC)C1=C(O)CC(CC(C)SCC)CC1=O` (centres unmarked) [sethoxydim], the “Selection concentration for wheat (PPM)” value [1] was 0.33 PPM and the “Selection concentration for rice (PPM)” value [2] was 0.33 PPM.
